Data taken from ChEMBL document CHEMBL5096193, “Potential pharmacological strategies targeting the Niemann-Pick C1 receptor and Ebola virus glycoprotein interaction” (Eur J Med Chem, 2021).

Experiments:
[1] = Inhibition of NPC1/VSV pseudotyped Ebola Viral Glycoprotein protein-protein interaction; parameters: species or system Ebolavirus
Ebolavirus [2] = test: Antiviral activity against Ebola virus makona; type: functional, organism-based; conditions: Orthoebolavirus
Zaire ebolavirus = test: Antiviral activity against Zaire ebolavirus infected in african green monkey assessed as reduction in viral infection preincubated for 1 hr followed by viral infection 1 hr and measured after 8 days by crystal violet staining based plaque assay; type: functional, organism-based, Vero E6; conditions: Vero C1008
Ebolavirus [3] = test: Antiviral activity against HIV based pseudotyped virus expressing Ebola-GP infected in human A549 cells assessed as inhibition of viral infection preincubated upto 12 hrs followed by viral infection and measured after 48 hrs; type: functional; conditions: Orthoebolavirus, time 60 hrs
Ebolavirus [4] = test: Antiviral activity against HIV based pseudotyped virus expressing Ebola-GP infected in human HeLa cells assessed as reduction in viral infection preincubated for 1 hrs followed by viral infection and measured after 48hrs by Steady-Glo luciferase assay; type: functional, organism-based; conditions: Orthoebolavirus
Ebolavirus [5] = test: Antiviral activity against HIV based pseudotyped virus expressing Ebola-GP infected in human 293T cells assessed as inhibition of viral infection preincubated for 1 hr followed by viral infection 1 hr and measured after 72 hrs; type: functional; conditions: Orthoebolavirus, 293TA; time 74 hrs
Ebolavirus [6] = test: Antiviral activity against Zaire Ebola virus infected in African green monkey assessed as reduction in viral infection incubated for 48hrs by GFP fluorescence based method; type: functional, organism-based, Vero E6; conditions: Orthoebolavirus, Vero C1008, 48 h
Ebolavirus [7] = test: Antiviral activity against Ebola virus infected in […] cells assessed as reduction in viral infection incubated for 10 days by crystal violet staining based method; type: functional, organism-based; conditions: Orthoebolavirus, 240 h
Ebolavirus [8] = test: Antiviral activity against VSV based pseudotyped virus expressing Ebola-GP infected in […] cells assessed as reduction in viral infection incubated for 24 hrs by linear regression analysis; type: functional, organism-based; conditions: Orthoebolavirus
Ebolavirus [9] = test: Antiviral activity against Ebola virus infected in African green monkey Vero E6 cells assessed as reduction in viral titer infected for 1 hr followed by compound addition and measured after 5 days by immunofocus assay; type: functional, organism-based; conditions: Orthoebolavirus, Vero C1008
Ebolavirus [10] = test: Antiviral activity against Ebola virus; type: functional, organism-based; conditions: Orthoebolavirus

COC(=O)c1ccc(COc2ccccc2CN2CCN(C(=O)CNC(=O)CC34CC5CC(CC(C5)C3)C4)CC2)cc1
IC50 [1]: 0.13 µM
EC50 (Ebolavirus [2]): 0.16 µM

O=C(CC12CC3CC(CC(C3)C1)C2)NCC(=O)N1CCN(Cc2ccccc2)CC1
IC50 [1]: 1.6 µM

COc1ccc(S(=O)(=O)N(CC(=O)Nc2ccccc2-c2ccccc2)c2ccc(C)cc2)cc1
IC50 (Zaire ebolavirus): 8.07 µM
IC90 (Ebolavirus [3]): 8.6 µM

CCN(CC)CC(=O)NNc1ccccc1Sc1cc(Cl)ccc1[N+](=O)[O-]
IC50 (Ebolavirus [4]): 4.69 µM

O=C(CNCCC1CCN(Cc2ccccc2)CC1)Nn1c2ccccc2c2ccccc21
IC50 (Ebolavirus [4]): 0.37 µM

FC(C1=Nc2ccccc2N=C(c2ccccc2)C1)C(F)(F)F (configuration not stated)
IC90 (Ebolavirus [5]): 12.1 µM
IC50 (Ebolavirus [6]): 10 µM

CCOc1ccc(NC(=O)CSc2nnc(COc3cccc(N(C)C)c3)n2-c2ccccc2)cc1
IC50 (Zaire ebolavirus): 10 µM
IC90 (Ebolavirus [3]): 25.7 µM

O=C(CN1CCCC1)NNc1ccccc1Sc1cc(Cl)ccc1[N+](=O)[O-]
IC50 (Ebolavirus [4]): 2.04 µM

C[C@]12CC3CC(C(=O)N[C@H]4CC[C@H](N)CC4)(C1)C[C@@](c1ccccc1)(C3)C2
EC50 (Ebolavirus [7]): 0.24 µM
EC50 (Ebolavirus [8]): 0.24 µM

NC(=O)c1nc(F)cnc1O [FAVIPIRAVIR]
IC50 (Ebolavirus [9]): 67 µM

CCC(CC)COC(=O)[C@H](C)N[P@](=O)(OC[C@H]1O[C@@](C#N)(c2ccc3c(N)ncnn23)[C@H](O)[C@@H]1O)Oc1ccccc1 [REMDESIVIR]
IC50 (Ebolavirus [2]): 86 µM

CN(C)CCOc1ccc(/C(=C(/CCCl)c2ccccc2)c2ccccc2)cc1 [TOREMIFENE]
IC50 (Ebolavirus [10]): 0.162 µM
